Bridge positions count the residues as written; N and C are the ends. Side chains are listed from the residue outwards. Peptide text beside a SMILES is read from it. * marks the point of attachment. Butanoyl(4-(4-I-phenyl)) = O=C(CCCc1ccc(I)cc1)*; PEG2 = NCCOCCOCCC(=O)O
Tests used:
KvLQT1/minK = KvLQT1/minK (Homo sapiens, UniProt P15382+P51787); assay: Safetyscan47 Ion Channel, Opener; assay type: cell-based; conditions: for Emax: read-out: Max Response
ADRA2A [1] = molecular target: T1, ADRA2A (Homo sapiens, UniProt P08913); assay: Safetyscan47 GPCR cAMP, Antagonist; assay type: cell-based; conditions: for Emax: read-out: Max Response
T1 sequence (P08913 1-465): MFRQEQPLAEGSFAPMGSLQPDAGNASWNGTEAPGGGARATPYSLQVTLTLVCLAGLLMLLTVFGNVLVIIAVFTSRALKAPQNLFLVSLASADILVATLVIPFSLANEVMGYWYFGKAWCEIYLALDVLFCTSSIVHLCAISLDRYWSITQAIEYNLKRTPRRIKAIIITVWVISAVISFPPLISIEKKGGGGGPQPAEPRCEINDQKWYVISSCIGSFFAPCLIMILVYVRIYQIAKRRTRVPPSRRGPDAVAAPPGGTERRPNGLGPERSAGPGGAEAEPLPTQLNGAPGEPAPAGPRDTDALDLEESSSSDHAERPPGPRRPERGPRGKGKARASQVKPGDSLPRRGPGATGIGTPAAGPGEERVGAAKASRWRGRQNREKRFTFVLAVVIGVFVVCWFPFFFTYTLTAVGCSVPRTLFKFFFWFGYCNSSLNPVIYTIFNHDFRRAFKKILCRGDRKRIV

integrin α5β1 = integrin α5β1 (Homo sapiens, UniProt P05556+P08648); assay: ELISA competition assay, integrin α5β1; assay type: binding
DRD2S = DRD2S (Homo sapiens, UniProt P14416); assay: Safetyscan47 GPCR cAMP, Agonist; assay type: cell-based; conditions: for Emax: read-out: Max Response
ADRA2A [2] = molecular target: T1, ADRA2A; assay: Safetyscan47 GPCR cAMP, Agonist; assay type: cell-based; conditions: for Emax: read-out: Max Response
AVPR1A = AVPR1A (Homo sapiens, UniProt P37288); assay: Safetyscan47 GPCR Calcium Flux, Agonist; assay type: cell-based; conditions: for Emax: read-out: Max Response
integrin αIIbβ3 = molecular target: T2, integrin αIIbβ3 (Homo sapiens, UniProt P05106+P08514); assay: ELISA competition assay, integrin αIIbβ3; assay type: binding
T2 sequence (P08514 32-993 limits assumed): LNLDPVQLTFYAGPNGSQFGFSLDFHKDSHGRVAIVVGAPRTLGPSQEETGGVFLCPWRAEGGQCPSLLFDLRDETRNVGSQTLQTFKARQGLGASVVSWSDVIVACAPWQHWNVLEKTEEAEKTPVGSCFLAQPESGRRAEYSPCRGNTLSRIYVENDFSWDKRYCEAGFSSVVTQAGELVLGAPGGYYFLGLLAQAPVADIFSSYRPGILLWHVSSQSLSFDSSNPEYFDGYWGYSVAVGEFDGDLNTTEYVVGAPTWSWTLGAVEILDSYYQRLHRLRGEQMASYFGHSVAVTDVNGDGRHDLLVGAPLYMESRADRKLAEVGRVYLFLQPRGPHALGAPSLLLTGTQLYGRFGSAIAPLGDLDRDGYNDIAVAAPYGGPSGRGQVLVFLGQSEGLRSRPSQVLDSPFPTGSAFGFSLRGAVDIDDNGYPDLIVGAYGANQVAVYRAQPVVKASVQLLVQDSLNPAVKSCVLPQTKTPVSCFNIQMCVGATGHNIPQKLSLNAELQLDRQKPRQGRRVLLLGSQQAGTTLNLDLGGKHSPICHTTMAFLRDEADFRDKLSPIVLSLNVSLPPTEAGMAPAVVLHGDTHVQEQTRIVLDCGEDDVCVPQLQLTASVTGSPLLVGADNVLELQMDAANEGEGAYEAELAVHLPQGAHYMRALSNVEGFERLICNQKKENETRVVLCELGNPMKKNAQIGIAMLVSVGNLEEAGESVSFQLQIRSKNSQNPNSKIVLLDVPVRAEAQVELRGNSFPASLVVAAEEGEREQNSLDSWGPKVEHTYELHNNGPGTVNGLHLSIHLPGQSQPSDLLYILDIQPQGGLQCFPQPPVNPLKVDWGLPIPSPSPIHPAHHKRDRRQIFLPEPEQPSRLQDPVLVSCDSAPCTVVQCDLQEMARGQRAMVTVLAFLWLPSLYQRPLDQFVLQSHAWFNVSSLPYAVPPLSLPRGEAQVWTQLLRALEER
T2 sequence (P05106 27-718 limits assumed): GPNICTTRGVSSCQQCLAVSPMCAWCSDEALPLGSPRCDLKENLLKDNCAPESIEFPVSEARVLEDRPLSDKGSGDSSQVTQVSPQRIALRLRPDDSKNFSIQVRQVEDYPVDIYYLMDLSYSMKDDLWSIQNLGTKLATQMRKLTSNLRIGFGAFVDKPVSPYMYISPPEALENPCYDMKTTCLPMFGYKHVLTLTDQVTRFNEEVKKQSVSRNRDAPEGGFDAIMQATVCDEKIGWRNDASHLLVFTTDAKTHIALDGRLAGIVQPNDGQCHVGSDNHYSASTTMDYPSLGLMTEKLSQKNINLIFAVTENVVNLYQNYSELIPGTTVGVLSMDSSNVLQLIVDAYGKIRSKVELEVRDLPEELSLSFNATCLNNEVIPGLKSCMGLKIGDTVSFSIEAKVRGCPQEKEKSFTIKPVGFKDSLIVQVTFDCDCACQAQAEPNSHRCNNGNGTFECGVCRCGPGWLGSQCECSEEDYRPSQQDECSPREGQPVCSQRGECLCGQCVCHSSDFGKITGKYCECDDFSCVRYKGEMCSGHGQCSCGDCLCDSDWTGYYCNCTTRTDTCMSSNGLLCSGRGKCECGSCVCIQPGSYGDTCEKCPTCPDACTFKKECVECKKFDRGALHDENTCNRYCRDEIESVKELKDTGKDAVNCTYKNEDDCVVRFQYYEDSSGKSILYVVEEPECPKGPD

[3] = Plasma protein binding, rapid equilibrium dialysis, human plasma; assay type: in vitro ADME; conditions: for fraction unbound at 4 h, 2 μM: human, plasma, pH 7.4
integrin αvβ5 = integrin αvβ5 (Homo sapiens, UniProt P06756+P18084); assay: ELISA competition assay, integrin αvβ5; assay type: binding
ADORA2A = ADORA2A (Homo sapiens, UniProt P29274); assay: Safetyscan47 GPCR Calcium Flux, Agonist; assay type: cell-based; conditions: for Emax: read-out: Max Response
ADRB1 = ADRB1 (Homo sapiens, UniProt P08588); assay: Safetyscan47 GPCR cAMP, Agonist; assay type: cell-based; conditions: for Emax: read-out: Max Response

CC[C@H](C)[C@H](NC(=O)[C@H](CC(C)C)NC(=O)[C@H](CC(=O)O)NC(=O)CNC(=O)[C@H](CCCNC(=N)N)NC(=O)[C@@H](NC(=O)[C@H](Cc1ccccc1)NC(=O)[C@H](Cc1ccc(O)cc1)NC(=O)[C@@H]1CCC(=O)NCC(=O)NCC(=O)N[C@@H](CCCNC(=N)N)C(=O)NCC(=O)N[C@@H](Cc2c[nH]cn2)C(=O)N[C@@H](C(C)C)C(=O)N2CCC[C@H]2C(=O)N1)C(C)C)C(=O)N[C@@H](CO)C(=O)N[C@@H](Cc1ccccc1)C(=O)N[C@@H](Cc1ccc(O)cc1)C(=O)N[C@@H](CCCCN)C(=O)O [lassotide 36] (GGRGHVPEYFVRGDLISFYK-OH; lactam N-8)
EC50 (KvLQT1/minK): > 45 µM
Emax (KvLQT1/minK): 0%
IC50 (ADRA2A [1]): > 45 µM
Emax (ADRA2A [1]): 0%
IC50 (integrin α5β1): 2.35 µM
EC50 (DRD2S): > 45 µM
Emax (DRD2S): 0%
EC50 (ADRA2A [2]): > 45 µM
Emax (ADRA2A [2]): 0.3%
EC50 (AVPR1A): > 45 µM
Emax (AVPR1A): 1.03%
IC50 (integrin αIIbβ3): 0.332 µM
fraction unbound at 4 h, 2 μM [3]: 0.126
IC50 (integrin αvβ5): > 10 µM
EC50 (ADORA2A): > 45 µM
Emax (ADORA2A): 38.9%
EC50 (ADRB1): > 45 µM
Emax (ADRB1): 0%

CC[C@H](C)[C@H](NC(=O)[C@H](CC(C)C)NC(=O)[C@H](CC(=O)O)NC(=O)CNC(=O)[C@H](CCCNC(=N)N)NC(=O)[C@@H](NC(=O)[C@H](Cc1ccccc1)NC(=O)[C@H](Cc1ccc(O)cc1)NC(=O)[C@@H]1CCC(=O)NCC(=O)NCC(=O)N[C@@H](CCCNC(=N)N)C(=O)NCC(=O)N[C@@H](Cc2c[nH]cn2)C(=O)N[C@@H](C(C)C)C(=O)N2CCC[C@H]2C(=O)N1)C(C)C)C(=O)N[C@@H](CO)C(=O)N[C@@H](Cc1ccccc1)C(=O)N[C@@H](Cc1ccc(O)cc1)C(=O)N[C@@H](CCCCNC(=O)CCOCCOCCNC(=O)CCCc1ccc(I)cc1)C(=O)O [lassotide 47] (GGRGHVPEYFVRGDLISFYK([PEG2-Butanoyl(4-(4-I-phenyl))])-OH; lactam N-8)
EC50 (KvLQT1/minK): > 45 µM
Emax (KvLQT1/minK): 0%
IC50 (ADRA2A [1]): > 45 µM
Emax (ADRA2A [1]): 0%
IC50 (integrin α5β1): 5.02 µM
EC50 (DRD2S): > 45 µM
Emax (DRD2S): 24.1%
EC50 (ADRA2A [2]): > 45 µM
Emax (ADRA2A [2]): 30.2%
EC50 (AVPR1A): > 45 µM
Emax (AVPR1A): 8.02%
IC50 (integrin αIIbβ3): 1.49 µM
Plasma protein binding, %Recovery ([3]; human plasma, RED, 2 μM, 4 h, 37°C): 101%
fraction unbound at 4 h, 2 μM [3]: 0.006
IC50 (integrin αvβ5): > 10 µM
EC50 (ADORA2A): > 45 µM
Emax (ADORA2A): 0%
EC50 (ADRB1): > 45 µM
Emax (ADRB1): 0%

From article doi:10.1101/2025.01.28.635346v1 (bioRxiv, 2025)
